Results taken from patent publication US20250099582A1, “TREATMENT OF PATIENTS DIAGNOSED WITH PANCREATIC DUCTAL ADENOCARCINOMA USING MONOCLONAL ANTIBODIES AGAINST THE EPIDERMAL GROWTH FACTOR RECEPTOR (EGFR)” (INNOCIMAB PTE LTD, priority 2015, published 2025).
Entries after “also recorded” stand apart in the source; their conditions may differ.

Tests used:
PDAC patients = details: cited from earlier work
[1] = Same clinical trial: safety, serious adverse events (SAEs); format: in vivo, human; details: for number of serious adverse events (SAEs) reported in the arm: 93 patients per arm; for patients with serious adverse events (SAEs): of 93 patients in the arm
Method: (§1) One hundred and ninety two (192) newly diagnosed patients with locally advanced or metastatic pancreatic cancer were randomized and recruited into 2 arms, on the treatment arm patients were administered administered i.v infusion of nimotuzumab at 400 mg dose once a week until progressive disease or unacceptable toxicity and gemcitabine 1000 mg/m^2 once weekly for 3 weeks, followed by a 1-week rest (d1, 8, 15; q28) and on the control arm patients were administered i.v infusion of placebo once a week until progressive disease or unacceptable toxicity and gemcitabine 1000 mg/m^2 once weekly for 3 weeks, followed by a 1-week rest (d1, 8, 15; q28).
(§2) As a primary endpoint, overall survival (OS) in the intention-to-treat (ITT) population was evaluated. The OS was assessed by the date of the last visit, death or loss of the follow up. The OS was initially calculated for all population and then a subset analysis was run taking into consideration the KRAS status of each of the patients on each treatment arm. Secondary endpoints included progression free survival (PFS), assessed by the day of the progression or the death, safety, assessed by the incidence of adverse events (AE) or serious adverse events (SAE), objective response rate (ORR), assessed by the number of patients on each treatment arm with Complete Response (CR) and Partial Response (PR) to the treatment ((CR+PR)/N, No. patients in the arm)) and Quality of Life (QoL), assessed using EORTC quality of life questionnaire QLQ-C30 version 2.0 (EORTC, NL).

[2] = test system: locally advanced or metastatic pancreatic cancer patients; assay: Randomized clinical trial of gemcitabine plus nimotuzumab versus gemcitabine plus placebo: survival by KRAS status; format: in vivo, human; details: for overall survival (OS), Kaplan-Meier, versus placebo-gemcitabine arm / progression-free-survival (PFS), Kaplan-Meier, versus placebo-gemcitabine arm: nimotuzumab 400 mg i.v. once weekly + gemcitabine 1000 mg/m^2 (d1, 8, 15; q28)
Method: In this clinical trial patients with previously untreated, unresectable, locally advanced or metastatic pancreatic adenocarcinoma received gemcitabine (1000 mg/m^2/30-min iv once weekly (d1, 8, 15; q28)) and nimotuzumab (400 mg 30-min iv once weekly), or placebo until disease progression or unmanageable toxicity. The primary endpoint in this study was overall survival (OS) in the intention-to-treat (ITT) population. The secondary endpoints included progression free survival (PFS), safety, objective response rate (ORR), and Quality of Life (QoL).
as §1
Tumor response was assessed using CT (Computed Tomography) or MRI (Magnetic Resonance Imaging) and statistically analyzed using RECIST (Response Evaluation Criteria in Solid Tumors), which provides guidelines for identifying complete response, partial response, stable disease, or progressive disease based on tumor size (see, e.g., Therasse et al., February 2000, “New Guidelines to Evaluate the Response to Treatment in Solid Tumors,” J. Natl. Cancer Inst. 92 (3): 205-216) and overall survival was assessed by the last patient visit, death or loss of follow up.
Out of 192 patients that were randomized into 2 arms, tumor samples were taken from 101 patients (49 from the control arm and 52 from the treatment arm).
To determine if KRAS status correlates with survival the 101 samples were tested. From the KRAS analysis of the 101 samples, 34 samples were KRAS Wild Type (20 from the control arm and 14 from the treatment arm) and 67 samples has the mutation of the KRAS (29 from the control arm and 38 from the treatment arm).
as §2
Progression-free-survival (PFS) is defined as the length of time during and after the treatment of a disease, such as cancer, that a patient lives with the disease without worsening of the symptoms and was measured from date of randomization to the occurrence of progression or death or last date of observation without progression.

[3] = patients with KRAS mutated, FIG. 3
[4] = patients with KRAS wild type, FIG. 4

Compound: C#Cc1cccc(Nc2ncnc3cc(OCCOC)c(OCCOC)cc23)c1 [Erlotinib]
- PDAC patients in whom treatment has shown benefit (PDAC patients; Moore et al. J Clin Oncol. 2007): about 10%
- prolongation of median survival (PDAC patients; addition to gemcitabine): 2 weeks

Compound: Nc1ccn([C@@H]2O[C@H](CO)[C@@H](O)C2(F)F)c(=O)n1 [placebo-gemcitabine, gemcitabine, reference compound]
- number of serious adverse events (SAEs) reported in the arm [1]: 104 SAEs
- patients with serious adverse events (SAEs) [1]: 65.6%

Compound: nimotuzumab-gemcitabine: treatment arm: nimotuzumab 400 mg i.v. once a week plus gemcitabine 1000 mg/m^2 once weekly for 3 weeks, 1-week rest
- overall survival (OS), Kaplan-Meier, versus placebo-gemcitabine arm [2, 3]: no difference
- progression-free-survival (PFS), Kaplan-Meier, versus placebo-gemcitabine arm [2, 3]: no difference
- overall survival (OS), Kaplan-Meier, versus placebo-gemcitabine arm [2, 4]: significant difference in favour of the treatment arm; also recorded: significant improvement
- progression-free-survival (PFS), Kaplan-Meier, versus placebo-gemcitabine arm [2, 4]: significant difference in favour of the treatment arm; also recorded: significant improvement
- overall survival (OS), Kaplan-Meier, versus placebo-gemcitabine arm ([2]; patients with KRAS wild type, FIG. 4, listed as nimotuzumab and gemcitabine): significantly improved
- increase of median overall survival compared to control arm (placebo-gemcitabine) ([2]; subgroup of KRAS WT): 6 months
- number of serious adverse events (SAEs) reported in the arm [1]: 108 SAEs
- patients with serious adverse events (SAEs) [1]: 58.1%

Compound: nimotuzumab: anti-EGFR humanized monoclonal antibody produced by the cell line h-R3 deposited as ECACC 951110101
- SAE related to study drug: general physical health deterioration, subjects ([1]; nimotuzumab arm): 3.23%
- SAE related to study drug: nausea, subjects ([1]; nimotuzumab arm): 2.15%
- SAE related to study drug: thrombocytopenia, subjects ([1]; nimotuzumab arm): 2.15%
- SAE related to study drug: vomiting, subjects ([1]; nimotuzumab arm): 2.15%
- patients with SAEs reported to be related to the study drug ([1]; nimotuzumab arm, of 93 patients): 16.1%
- number of SAEs reported to be related to the study drug ([1]; nimotuzumab arm, of the 108 SAEs): 26 SAEs
